According to PubChem BioAssay (NCI):
Values joined by “and” are separate entries in the source; they are usually repeats but may differ in a detail not shown here. Equal entries are not always repeated.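 The compound was tested at five concentrations on cells cultured in 96-well plates, with a 48-hour exposure period. At the GI50, growth is halved. TGI: concentration producing complete growth inhibition.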

Experiments:
Experiment in all cases: growth of human tumour cells (NCI), 48 h
[1] = tested on: DU-145 prostate
[2] = tested on: A498 renal
[3] = tested on: MDA-MB-231 breast
[4] = tested on: SK-MEL-28 melanoma
[5] = tested on: SK-OV-3 ovarian
[6] = tested on: OVCAR-8 ovarian
[7] = tested on: 786-0 renal
[8] = tested on: KM12 colon
[9] = tested on: HCT-15 colon
[10] = tested on: CCRF-CEM leukemia

| Structure (SMILES) | TGI [1] | TGI [2] | TGI [3] | TGI [4] | TGI [5] | TGI [6] | TGI [7] | TGI [8] | TGI [9] | TGI [10] | GI50 [1] | GI50 [2] | GI50 [3] | GI50 [4] | GI50 [5] | GI50 [6] | GI50 [7] | GI50 [8] | GI50 [9] | GI50 [10] |
| --- | --- | --- | --- | --- | --- | --- | --- | --- | --- | --- | --- | --- | --- | --- | --- | --- | --- | --- | --- | --- |
| Cc1c(-c2ccccn2)ccc2ccccc12 | > 100 µM | > 100 µM | > 100 µM | > 100 µM | > 100 µM | > 100 µM | > 100 µM | > 100 µM | > 100 µM | > 100 µM |  |  |  |  |  |  |  |  |  |  |
| COc1ccc2c(c1)-c1c(c3cc(OC)ccc3n(CCN(C)C)c1=O)C2=O | 3.54 µM | 6.48 µM | 8.07 µM | 8.73 µM | 8.77 µM | 5.59 µM | 9.42 µM | 1.28 µM | 13.1 µM | 1.76 µM | 0.565 µM | 1.36 µM | 1.54 µM | 2.59 µM | 1.73 µM | 0.31 µM | 2.35 µM | 0.304 µM | 0.629 µM | 0.199 µM |
| CNC(=O)c1cc(Oc2ccc(NC(=O)Nc3cc(C(C)(C)C)nn3-c3ccc4ncccc4c3)c(F)c2)ccn1 | 6.23 µM and 5.62 µM | 3.21 µM and 2.42 µM | 7.12 µM and 5.78 µM | 2.62 µM and 2.8 µM | 6.59 µM and 7.8 µM | 7.82 µM and 6.84 µM | 8.13 µM and 8.95 µM | 5.19 µM and 5.41 µM | 7.3 µM and 8.53 µM | 8.36 µM and > 31.6 µM | 2.1 µM and 1.8 µM | 1.26 µM and 0.307 µM | 0.827 µM and 0.963 µM | 0.264 µM and 0.297 µM | 1.59 µM and 2.34 µM | 2.24 µM and 1.99 µM | 2.69 µM and 3.08 µM | 0.0422 µM and 0.0433 µM | 2.01 µM and 2.35 µM | 2.35 µM and 2.57 µM |
| Cc1c(C(N)=O)sc2nc(C)n(/N=c3\scc(-c4ccccc4)n3Cc3ccccc3)c(=O)c12 | > 100 µM | 8.97 µM | 8.41 µM | > 100 µM | > 100 µM | > 100 µM | > 100 µM | > 100 µM | > 100 µM | > 100 µM | 3.9 µM | 2.53 µM | 3.28 µM | 3.56 µM | 4.51 µM | 3.49 µM | 3.82 µM | 3.37 µM | 2.64 µM | 34.2 µM |
| COc1cc(C(=O)O[C@H](C(=O)NCCCCNC(=O)[C@@H](OC(=O)c2cc(OC)cc3c(C)cccc23)[C@]2(C)CO2)[C@]2(C)CO2)c2cccc(C)c2c1 | 0.352 µM | 5.16 µM | 5.48 µM | 50 µM | 6.19 µM | 0.206 µM | 1.25 µM | 0.802 µM | 1.18 µM | > 100 µM |  | 2.46 µM | 1.85 µM | 0.0409 µM | 0.703 µM | 0.0192 µM |  | 0.139 µM | 0.104 µM | < 0.01 µM |
| C[C@]12CCC(=O)C[C@@H]1CC[C@@H]1[C@@H]2CC[C@]2(C)[C@@H](OC(=O)N(CCCl)N=O)CC[C@@H]12 | 3.95 µM | 4.98 µM | 24.4 µM | 23 µM | 13.6 µM | 24 µM | 3.66 µM | 6.41 µM | 14 µM |  | 0.405 µM | 1.82 µM | 9.48 µM | 6.43 µM | 1.41 µM | 1.36 µM | 0.118 µM | 1.49 µM | 2.26 µM | 0.207 µM |
| Oc1[nH]c2ccccc2c1C=Nc1ccc(-n2cncn2)cc1 | > 25 µM | > 25 µM | > 25 µM | > 25 µM | > 25 µM | > 25 µM | > 25 µM | > 25 µM | > 25 µM | > 25 µM | > 22.5 µM | > 16.7 µM | > 25 µM | > 25 µM | > 15.7 µM | 13.9 µM | > 25 µM | 0.991 µM | 18.8 µM | 3.06 µM |
| CSc1nc(SC)c2c(C)cn(COCCOC(=O)c3ccccc3)c2n1 | > 100 µM | > 100 µM | > 100 µM | > 100 µM | > 100 µM | > 100 µM | > 100 µM | > 100 µM | > 100 µM | > 100 µM |  |  |  |  |  |  |  |  |  |  |
| CCOC(=O)/C=C1/SC(=Nc2ccc(C#N)cc2)N(Cc2ccco2)C1=O | 10.5 µM | 30 µM | 23.5 µM | 10.5 µM | 29.9 µM | 7.94 µM | 4.17 µM | 5.01 µM | 5.13 µM | > 100 µM | 3.17 µM | 14.8 µM | 4.29 µM | 2.92 µM | 14.1 µM | 2.83 µM | 1.93 µM | 2.13 µM | 2.02 µM | 3.17 µM |
| COc1ccc2c(c1)C(=O)c1c-2n(CCCN(C)C)c(=O)c2cc([N+](=O)[O-])ccc12 | 0.0319 µM | 0.694 µM | 2.83 µM | 2.59 µM | 0.666 µM | 3.75 µM | < 0.01 µM | 0.556 µM | 1.29 µM | < 0.01 µM | < 0.01 µM | 0.036 µM | 1.08 µM | 0.192 µM | < 0.01 µM | < 0.011 µM | < 0.01 µM | 0.025 µM | 0.0239 µM | < 0.01 µM |
| O=C(NCCNCCO)c1ccc(Nc2nc3ccccc3c3occc23)cc1 | 30.7 µM | 39.4 µM | 16.2 µM | 58.4 µM | 36.5 µM | 16.2 µM | 27.5 µM | 23.8 µM | 31.2 µM | 14.3 µM | 14.9 µM | 18.3 µM | 3.12 µM | 23.7 µM | 15.4 µM | 2.61 µM | 13.7 µM | 8.99 µM | 16.7 µM | 3.05 µM |
| O=C1C(Cl)=C(NCCCN(CCCNC2=C(Cl)C(=O)c3ccccc3C2=O)C2=C(Cl)C(=O)c3ccccc3C2=O)C(=O)c2ccccc21 | 3.06 µM | 39.4 µM |  | 4.53 µM | 37.9 µM | 10.5 µM | 18.2 µM | 12.8 µM | 3.78 µM | > 100 µM | 1.68 µM | 19.6 µM | 1.93 µM | 2.15 µM | 18.4 µM | 3 µM | 4.62 µM | 3 µM | 1.66 µM | 3.34 µM |
